Results as given in patent publication US9035022B2, “Cyclic CRF antagonist peptides” (Salk Institute for Biological Studies, priority 2010, dated 2015).

Tested on: adrenalectomized (ADX) rats
Assay: In vivo assay of ACTH secretion in adrenalectomized (ADX) rats
Design: species or system rat
Method: The in vivo assays which are employed to test these CRF antagonists use adrenalectomized (ADX) rats. […] Their diet is supplemented with 0.9% NaCl in the drinking water and with oranges. Two days prior to the experiments, the animals are equipped with jugular cannulae, as described in C. […] On the morning of the experiments, the i.v. cannulae are connected to a line filled with heparinized saline, and the rats are placed in individual buckets and left undisturbed for 2 hours. For the experiment, a first blood sample of 0.3 mL is withdrawn, the test solution is injected (in an 0.2-0.5 mL volume), and subsequent blood samples are obtained at about 15, 45, 90 and 120 minutes. The blood samples are centrifuged, and the separated plasma are kept frozen (−20° C.) until assayed for ACTH values. Plasma ACTH levels are measured as described in C.

Row | Substance | inhibition of secretion of ACTH and corticosterone (general procedure of Example I) | inhibition of secretion of ACTH and β-END-LI (administration of the peptide)
1 | [Aib^19,24,32, Orn^25]-Astressin B [V] | inhibits the secretion of ACTH and corticosterone | 
2 | [Tyr-Asp^1, Aib^19,24,32]-Astressin B [IV] |  | inhibits the secretion of ACTH and β-END-LI
